# “And” between values parts separate entries of the source, which are not always exact repeats. Equal values may be shown once.
# Test system: P. falciparum 3D7 growth, pLDH absorbance
# Assay: P. falciparum 3D7 growth inhibition, dose response, strain 3D7 (AID 2305)
row,Structure (SMILES),IC50
1,N#Cc1ccc2c(c1)CN(CCC1CCC(NC(=O)c3cc4cc(OC(F)(F)F)ccc4[nH]3)CC1)CC2 (stereo not given),780 nM
2,COc1cc2sc(=NC(=O)c3cccc([N+](=O)[O-])c3)n(C)c2cc1OC,720 nM
3,COc1cccc(-c2ccc(C(=O)NC3CCN(Cc4ccc(C(C)(C)C)cc4)CC3)s2)c1,1600 nM
4,COc1ccc2nc3cc(Cl)ccc3c(NCCCCN3CCNCC3)c2c1,180 nM
5,O=C(C=Cc1ccc([N+](=O)[O-])cc1)N1CCC(CCN2CCC(c3c[nH]c4ccccc34)CC2)CC1,740 nM
6,CCCc1cc(NC2CCN(C)CC2)nc(Nc2cccc(OC)c2)n1,770 nM
7,CC1N=C(N)N=C(N)N1OCc1ccccc1 (stereo not given),30 nM
8,COC(=O)C(C)NCC(=O)c1ccccc1 (stereo not given),120 nM
9,CCOC(=O)N1CCN(C(=O)Nc2ccc(Cl)cc2)CC1,1520 nM
10,Cn1nc(-c2ccc(NC(=O)Nc3cc(C(F)(F)F)cc(C(F)(F)F)c3)c(F)c2)c2cnc(NCCN3CCOCC3)nc21,800 nM
11,COc1ccc(CN2CCN(Cc3cc(Cl)ccc3O)CC2CCO)c(C)c1C (stereo not given),1490 nM
12,CCOc1cc(C(=O)NC2CC(C)(C)NC(C)(C)C2)ccc1-c1nc2ccc(Cl)cc2[nH]1,990 nM
13,O=C(Nc1cc(C(F)(F)F)cc(C(F)(F)F)c1)NC1CCC(CN2CCC(c3c[nH]c4ccccc34)CC2)CC1 (stereo not given),810 nM and 460 nM
14,O=C(/C=C/c1ccc(Cl)c(Cl)c1)NC1CCC(CN2CCC(c3c[nH]c4ccncc34)CC2)CC1 (stereo not given),400 nM
15,CC(C)(C)NC(=O)C(c1ccc(F)cc1)N(C(=O)c1ccc(CN2CCOCC2)o1)c1ccc(C2CCCCC2)cc1 (stereo not given),920 nM
16,CCc1c[nH]c2c(N3CCCS3(=O)=O)cc(C(=O)N[C@@H](Cc3ccccc3)[C@H](O)CNC(C)(C)c3cccc(C(F)(F)F)c3)cc12,230 nM
17,Cn1c2c(c3ccccc31)CN(CCC1(c3ccc(Cl)c(Cl)c3)CN(C(=O)Cc3ccccc3)CCO1)CC2 (stereo not given),360 nM
18,Cc1cc(F)ccc1-c1nc(Nc2ccncc2)c2ccn(C)c2n1,940 nM
19,O=C1Nc2cccc3c2C1(CCCCCN1CC=C(c2c[nH]c4ccccc24)CC1)CCC3 (stereo not given),740 nM
20,O=C(NCC1CCC(CNCCCc2ccccc2)CC1)c1cc(Cl)cc(Cl)c1 (stereo not given),850 nM
21,CCCc1cc(NCC)nc(Nc2ccc(F)cc2)n1,1030 nM
22,CCOc1cc(Br)c(C(C)NC(=O)c2cccc(OC)c2)cc1OCC (stereo not given),170 nM
23,COc1ccc(C(=O)Nc2nonc2-c2ccc(OC)c(OC)c2)cc1Cl,670 nM
24,OCC1CCN(Cc2ccc(-c3ccc(-c4nc5ccc(F)cc5[nH]4)cc3)cc2)CC1,840 nM

row,Structure (SMILES),IC50
1,Nc1nc(N)c2c(Cl)c(N(Cc3ccccc3)Cc3ccccc3)ccc2n1,190 nM
2,COc1ccc2cc(C(C)NC3CCN(c4cccc(NC(=O)c5ccncc5)c4)CC3)ccc2c1 (stereo not given),1550 nM
3,N#Cc1ccc2c(c1)CCN(CCC1CCC(NC(=O)/C=C/c3cc(Br)cs3)CC1)CC2 (stereo not given),1000 nM
4,COc1ccc(OC)c(Cc2cnc3nc(N)[nH]c(=O)c3c2C)c1,360 nM
5,Cn1cnc(CCNC(=O)c2ccc(-c3cccc(-c4nc5ccc(F)cc5[nH]4)c3)cc2)c1,680 nM
6,CC(Cc1ccc(NC(=O)c2ccc(CNCCCCc3ccccc3)cc2)cc1)NCCc1cccc(Cl)c1 (stereo not given),330 nM
7,COc1nc2c(CCN3CC[C@@H](NCc4cc(C#N)c5c(c4)CCO5)[C@@H](O)C3)ccnc2cc1F,1030 nM
8,Cc1cc(NCCc2ccccc2)nc(/N=C(\N)Nc2cccc([N+](=O)[O-])c2)n1,140 nM
9,Cc1cc(NN=Cc2ccccc2Cl)c2cccc(C)c2n1,710 nM
10,O=C(/C=C/c1ccc(Cl)c(Cl)c1)N1CCC(CCN2CCC(c3nc4ccc(O)cc4[nH]3)CC2)CC1,340 nM
11,CCS(=O)(=O)N1CCN(c2nc(-c3ccccc3)nc(COC)c2Cc2ccccc2F)CC1,1450 nM
12,Cc1cc(NCCC(=O)Nc2ccccc2)nc(NCCc2ccccc2)n1,850 nM
13,COc1cc(CNCCCCCCNCc2cc(OC)cc3ccccc23)c2ccccc2c1,590 nM
14,CCN(c1ccccc1)S(=O)(=O)c1ccc(OC)c(NC(=O)c2cccc(C(F)(F)F)c2)c1,880 nM
15,COc1cccc(-c2cnc(N)c(-c3nc4ccc(C(F)(F)F)cc4[nH]3)c2)c1,650 nM
16,Cc1ccc(NC(=O)c2ccc(CN3CCCN(CC4CCCCC4)CC3)cc2)cc1C,1020 nM
17,Cc1cccc2[nH]c(-c3ccc(-c4ccc(CN5CCN(CC6CCCN(C)C6)CC5)cc4)s3)nc12 (stereo not given),140 nM
18,COc1ccc(CC(=O)Nc2ccc(-c3cccc(-c4nc5c(C)cccc5[nH]4)c3)cc2)cc1O,450 nM
19,CC(C)c1sc(N2CCN(C)CC2)nc1C(=O)NCCc1ccc(Br)cc1,1130 nM
20,CC(C)CNCc1cccc(-c2cccc(CN(CCN(C)C)C(=O)NCCc3ccccc3)c2)c1,690 nM
21,CCOC(=O)/C(=N\OC(C)(C)C(=O)NCc1ccc(O)c(O)c1)c1csc(NC(c2ccccc2)(c2ccccc2)c2ccccc2)n1,170 nM
22,Cn1c(N)c(C(=O)CSc2ncc(-c3ccc(F)cc3)n2Cc2ccccc2)c(=O)n(C)c1=O,570 nM
23,Cc1cc(C2CCN(CCCCNC(=O)c3ccc(-c4ccc(C(F)(F)F)cc4)cc3)CC2)c(C)cc1OCC#N,1010 nM
24,NC(N)=Nc1nc(-c2cccc(NC(=O)CCCCCCCON3C(N)=NC(N)=NC34CCCCC4)c2)cs1,40 nM

row,Structure (SMILES),IC50
1,c1ccc(Oc2ccc(Nc3nc(NCCc4cnc[nH]4)nc(NC4CCCC4)n3)cc2)cc1,1030 nM
2,CCc1c(C)nc(-n2nc(C)cc2NC(=O)CC(c2ccccc2)c2ccccc2)[nH]c1=O,650 nM
3,CC(C)C[C@H](NC(=O)[C@H](Cc1ccccc1)N(C[C@H](Cc1ccccc1)NC(=O)OC(C)(C)C)C(=O)C(F)(F)F)C(=O)NC1CCN(Cc2ccccc2)CC1,530 nM
4,CC(C)Cc1ccc(N2CCN(CCCCNC(=O)c3ccc(NC(=O)c4cc(C(F)(F)F)cc(C(F)(F)F)c4)cc3)CC2)cc1,180 nM
5,O=C(Nc1cccc(CN2CCCN(Cc3cccc(Cl)c3)CC2)c1)c1ccc(Br)cc1,940 nM
6,CCc1cn2c3c(cc(C(=O)N[C@@H](Cc4cc(F)cc(F)c4)[C@H](O)CNC4CC4)cc13)N(C)S(=O)(=O)CC2,120 nM
7,Cc1cccc2[nH]c(-c3cccc(-c4cccc(NC(=O)Cc5cnc[nH]5)c4)c3)nc12,670 nM
8,COc1cccc(NC(=O)Nc2ccc(Nc3nc(C)cc(N(C)C)n3)cc2)c1,170 nM
9,COc1ccc2ncc(F)c(C(O)CN3CCC(NCc4ccc5c(n4)NC(=O)CO5)CC3)c2c1 (stereo not given),1110 nM and 370 nM
10,CCC(C)CN1CCC(N(C)c2cc(NC(=O)c3ccc(F)cc3)ccn2)CC1 (stereo not given),980 nM
11,COc1ccc(CCN(C)CCCCc2ccc(NC(=O)c3cccc4c(=O)c5cc(F)ccc5sc34)cc2)cc1OC,900 nM
12,Cc1nc(C)c(CC(=O)Nc2ccc(-c3ccc(-c4nc5ccc(C(F)(F)F)cc5[nH]4)s3)cc2)s1,1030 nM
13,N#Cc1ccc(C=Cc2nccc3c2[nH]c2ccccc23)cc1,640 nM
14,O=C(CCc1cnc[nH]1)Nc1cccc(-c2ccc(-c3nc4ccc(F)cc4[nH]3)s2)c1,560 nM
15,COc1ccc(CN2CCC2=O)c(OC)c1,120 nM
16,Cn1cccc1C(=O)C(=O)Nc1cccc(-c2ccc(-c3nc4ccc(C(F)(F)F)cc4[nH]3)cc2)c1,790 nM
17,O=C(/C=C/c1ccc(Cl)c(Cl)c1)NCCCCCCN1CCCN(C(=O)Nc2ccc(Cl)c(C(F)(F)F)c2)CC1,560 nM
18,CC(C)COc1ccc(Cl)cc1Nc1nc(-c2nc3ccccc3[nH]2)cs1,880 nM
19,CNC(=C[N+](=O)[O-])NCCSCc1cc(C)c(CN(C)C)s1,350 nM
20,O=C(NCCCCN1CCC(c2ccc3ccccc3c2O)CC1)c1ccc(NC(=O)c2ccc(Cl)cc2)cc1,1010 nM
21,N#Cc1ccc(-c2ccc3nc(N4CCCN(C5CCC5)CC4)ccc3c2)cc1,1500 nM
22,COc1ccc(CNC2Cc3ccccc3C2)cc1-c1ccc(S(=O)(=O)NCCN2CCCC2)c(F)c1,720 nM
23,O=C(Nc1ccc(OC2CCN(Cc3ccc(F)cc3)CC2)c(Cl)c1)c1cccs1,320 nM
24,CCOC(=O)N/N=C/[C@H](CCc1ccccc1)NC(=O)[C@H](CC(C)C)NC(=O)c1cc2cccc(OC)c2o1,880 nM

row,Structure (SMILES),IC50
1,O=C(Nc1ccc2c(c1)CCC2)c1cccc(CN2CCCN(Cc3cccc(O)c3)CC2)c1,1080 nM
2,CC(CN1CCN(C)CC1)C(=O)Nc1ccc(-c2ccc(-c3nc4ccccc4[nH]3)s2)cc1 (stereo not given),640 nM
3,O=C(O)c1ccc2c(c1)N(C(=O)CNCc1ccc(F)cc1)CC(=O)N2CCCc1ccccc1,920 nM
4,O=C(Nc1n[nH]c2nc(-c3ccco3)c(Br)cc12)c1ccc(CN2CCCC2)cc1,790 nM
5,O=[N+]([O-])c1cc(C(c2ccc(O)c([N+](=O)[O-])c2)C(Cl)(Cl)Cl)ccc1O,730 nM
6,COc1cccc(CC(=O)N2CCC(n3c(C)nc4ccc(C)cc43)CC2)c1,110 nM
7,FC(F)(F)c1ccc2nc(-c3ccc(-c4cccc(CN5CCCCC5)c4)cc3)[nH]c2c1,140 nM
8,CN1CCCC(CN2CCN(Cc3cccc(-c4cccc(-c5nc6ccccc6[nH]5)c4)c3)CC2)C1 (stereo not given),140 nM
9,CN1CCCN(Cc2ccc(-c3ccc(NC(=O)c4ccc(C#N)cc4)cc3)cc2)CC1,1020 nM
10,COc1ccc(CCCN2C(=O)C(c3ccccc3)(c3ccccc3)N=C2N)cc1,1050 nM
11,O=C(NCc1ccccc1F)c1ccc(N2CCC(NCc3cccc(-n4cccn4)c3)CC2)cc1,1730 nM
12,O=C(Nc1cccc(-c2nn3ccccc3c2-c2ccnc(Nc3cccc(F)c3)n2)c1)c1c(F)ccc(F)c1Cl,1140 nM
13,CN1CCN(CCCNCc2ccccc2-c2cccc(CNCc3ccc4c(c3)OCO4)c2)CC1,790 nM
14,COc1ccc(CN2CCN(CCCCNC(=O)c3ccc(NC(=O)c4ccc(Cl)cc4)cc3)CC2)c(OC)c1,890 nM
15,Cc1cccc2[nH]c(-c3cccc(-c4ccc(NC(=O)Cc5ccccn5)cc4)c3)nc12,790 nM
16,CS(=O)(=O)CCNCc1nc(-c2ccc3c(Nc4ccc(Oc5ccccn5)cc4)ccnc3c2)cs1,680 nM
17,Nc1cccc(-c2ccc3ccnc(N)c3c2)c1,800 nM
18,COCCNCc1cccc(-c2ccc3c(Nc4ccc(Oc5cccnc5)cc4)ccnc3c2)c1,180 nM
19,Cc1c(N=O)cc(C(C)(C)C)c(O)c1C(=O)Nc1ccc([N+](=O)[O-])cc1Cl,770 nM
20,Cc1[nH]c(C)c(-c2ccc(Nc3ccc(C(F)(F)F)cn3)cc2)c(=O)c1Br,30 nM
21,O=C(Nc1ccc([N+](=O)[O-])cc1)c1nn(-c2ccccc2)cc1N=Cc1cccc(O)c1,890 nM
22,CCNc1cc(-c2cccc(OC)c2)nc(Nc2ccc(F)cc2)n1,1270 nM
23,CN(CCc1ccccc1)c1ncc(-c2ccccc2CNCc2ccccc2O)cn1,1020 nM

# From PubChem BioAssay AID2305 (GlaxoSmithKline (GSK), 2010)
